Measurements from patent US9198433B2, “Substituted benzene fungicides” (E I DU PONT DE NEMOURS AND COMPANY, priority 2007, dated 2015).
Marks after values point to notes of the source that are not given here.

Legend:
Type in all cases: in vivo
Septoria tritici = assay: Test D: wheat leaf blotch, preventive spray on wheat seedlings, disease rating
Description: The test compounds were first dissolved in acetone in an amount equal to 3% of the final volume and then suspended at the desired concentration (in ppm) in acetone and purified water (50/50 mix) containing 250 ppm of the surfactant Trem® 014 (polyhydric alcohol esters). The resulting test suspensions were then used in Tests A-L. Spraying a 200 ppm test suspension to the point of run-off on the test plants was the equivalent of an application rate of 500 g/ha. The test suspension was sprayed to the point of run-off on wheat seedlings. The following day the seedlings were inoculated with a spore suspension of Septoria tritici (the causal agent of wheat leaf blotch) and incubated in a saturated atmosphere at 24° C. for 48 h, and then moved to a growth chamber at 20° C. for 19 days, after which time disease ratings were made. […] A dash (-) indicates no test results. All results are for 200 ppm except where followed by an “*”, which indicates 40 ppm or “**”, which indicates 50 ppm.

Septoria nodorum = assay: Test C: wheat glume blotch, preventive spray on wheat seedlings, disease rating
Description: (§1) The test compounds were first dissolved in acetone in an amount equal to 3% of the final volume and then suspended at the desired concentration (in ppm) in acetone and purified water (50/50 mix) containing 250 ppm of the surfactant Trem® 014 (polyhydric alcohol esters). The resulting test suspensions were then used in Tests A-L. Spraying a 200 ppm test suspension to the point of run-off on the test plants was the equivalent of an application rate of 500 g/ha. The test suspension was sprayed to the point of run-off on wheat seedlings. […] A dash (-) indicates no test results. All results are for 200 ppm except where followed by an “*”, which indicates 40 ppm or “**”, which indicates 50 ppm.

Botrytis cinerea = assay: Test F: tomato Botrytis, preventive spray on tomato seedlings, disease rating
Description: (§2) The test compounds were first dissolved in acetone in an amount equal to 3% of the final volume and then suspended at the desired concentration (in ppm) in acetone and purified water (50/50 mix) containing 250 ppm of the surfactant Trem® 014 (polyhydric alcohol esters). The resulting test suspensions were then used in Tests A-L. Spraying a 200 ppm test suspension to the point of run-off on the test plants was the equivalent of an application rate of 500 g/ha. The test suspension was sprayed to the point of run-off on tomato seedlings. […] A dash (-) indicates no test results. All results are for 200 ppm except where followed by an “*”, which indicates 40 ppm or “**”, which indicates 50 ppm.

[1] = test system: Puccinia recondita f. sp. tritici; assay: Test B: wheat leaf rust, preventive spray on wheat seedlings, disease rating
Description: as §1

[2] = test system: Erysiphe graminis f. sp. tritici; assay: Test A: wheat powdery mildew, preventive spray on wheat seedlings, disease rating
Description: as §1

Alternaria solani = assay: Test H: tomato early blight, preventive spray on tomato seedlings, disease rating
Description: as §2

Structure (SMILES)	Percentage Disease Control, Test D (Septoria tritici; 40 ppm (*))	Percentage Disease Control, Test C (Septoria nodorum; 40 ppm (*))	Percentage Disease Control, Test F (Botrytis cinerea; 40 ppm (*))	Percentage Disease Control, Test B ([1]; 40 ppm (*))	Percentage Disease Control, Test A ([2]; 40 ppm (*))	Percentage Disease Control, Test H (Alternaria solani; 40 ppm (*))	Percentage Disease Control, Test F (Botrytis cinerea; 200 ppm) [%]	Percentage Disease Control, Test D (Septoria tritici; 200 ppm) [%]	Percentage Disease Control, Test C (Septoria nodorum; 200 ppm) [%]	Percentage Disease Control, Test B ([1]; 200 ppm) [%]	Percentage Disease Control, Test A ([2]; 200 ppm) [%]	Percentage Disease Control, Test H (Alternaria solani; 200 ppm) [%]
COC(=O)NCc1cc(-c2ccn(-c3nccc(C(F)(F)F)n3)n2)ccc1Cl [Cmpd 87]	99* %	97* %	0* %	100* %	82* %	9* %						
COC(=O)NCc1cc(-c2ccn(-c3ccc(Cl)c(C(F)(F)F)c3)n2)ccc1Cl [Cmpd 88]	100* %	100* %	0* %	97* %	95* %	0* %						
COC(=O)NCc1cc(-c2ncn(-c3cccc(C(F)(F)F)c3)n2)ccc1Cl [Cmpd 89]	100* %	100* %		100* %	100* %	89* %	0					
COC(=O)NCc1cc(-c2ccn(-c3nc(SCc4ccccc4)ns3)n2)ccc1Cl [Cmpd 91]							0	97	64	85	0	33
COC(=O)NCc1cc(-c2ccn(-c3nc(OC)ns3)n2)ccc1Cl [Cmpd 92]		92* %		97* %			0	72			82	15
CCSc1nsc(-n2ccc(-c3ccc(Cl)c(CNC(=O)OC)c3)n2)n1 [Cmpd 93]	96* %	100* %		98* %	93* %		0					15
COC(=O)NCc1cc(-c2ccn(-c3nc(-c4ccc(C(F)(F)F)cc4)ns3)n2)ccc1Cl [Cmpd 94]							0	40	0	17	0	0
COC(=O)NCc1cc(-c2ccn(-c3nc(C4CC4)ns3)n2)ccc1Cl [Cmpd 95]	100* %	100* %	90* %	100* %	100* %							25
COC(=O)NCc1cc(-c2ccn(-c3nc(C(C)(C)C)ns3)n2)ccc1Cl [Cmpd 96]	100* %	100* %		100* %	100* %		0					59
COC(=O)NCc1cc(-c2ncn(-c3ccc(Br)cc3)n2)ccc1Cl [Cmpd 97]	100* %	100* %		100* %	98* %		0					85
CCCCCc1cc(-c2ccc(Cl)c(CNC(=O)OC)c2)nn1C [Cmpd 98]		90* %		98* %			0	98			91	0
COC(=O)NCc1cc(-c2cc(-c3ccc(C(C)(C)C)cc3)[nH]n2)ccc1Cl [Cmpd 99]							98	92	0	74	82	0
COC(=O)NCc1cc(-c2cc(C(F)(F)F)[nH]n2)ccc1Cl [Cmpd 100]							0	40	0	0	0	0
COC(=O)NCc1cc(-c2cc(C(F)(F)F)n(CCC(C)(C)C)n2)ccc1Cl [Cmpd 101]	95* %	100* %		99* %	98* %		0					0
COC(=O)NCc1cc(-c2ccn(-c3nc(C(C)C)ns3)n2)ccc1Cl [Cmpd 104]	100* %	100* %		100* %	100* %		0					40
COC(=O)NCc1cc(-c2ccn(-c3nc(C)ns3)n2)ccc1Cl [Cmpd 105]	99* %	100* %		100* %		90* %	0				51	
COC(=O)NCc1cc(-c2ccn(-c3ccc(OC)cc3)n2)ccc1Cl [Cmpd 106]	100* %	100* %		100* %	98* %	92* %	0					
COC(=O)NCc1cc(-c2ccn(-c3cccc(OC)c3)n2)ccc1Cl [Cmpd 107]	99* %	100* %		100* %	100* %	99* %	89					
COC(=O)NCc1cc(-c2ccn(-c3ccc(C(=O)OC)cc3)n2)ccc1Cl [Cmpd 108]	98* %						0		95	86	0	28
COC(=O)NCc1cc(-c2ccn(-c3ccc(C)cc3)n2)ccc1Cl [Cmpd 109]	99* %	100* %	92* %	100* %	98* %	100* %						
COC(=O)NCc1cc(-c2ccn(-c3ccc(C(C)C)cc3)n2)ccc1Cl [Cmpd 110]	97* %	100* %	96* %	100* %	100* %							85
COC(=O)NCc1cc(-c2ccn(-c3ccc(Br)cc3)n2)ccc1Cl [Cmpd 111]	100* %	100* %		100* %	99* %	90* %	95					
COC(=O)NCc1cc(-c2ccn(-c3cccc(Br)c3)n2)ccc1Cl [Cmpd 112]	100* %	100* %		99* %			0				88	93
COC(=O)NCc1cc(-c2ccn(-c3cccc(C#N)c3)n2)ccc1Cl [Cmpd 113]							24	100	100	99	92	0
COC(=O)NCc1cc(-c2ccn(-c3ccc(C#N)cc3)n2)ccc1Cl [Cmpd 114]							0	100	100	99	93	0
